Experimental data published in patent publication US8614103B2, “Compositions and methods for treating sphingosine-1-phosphate (S1P) related ocular diseases and conditions” (Lpath, Inc., priority 2006, dated 2013).

Legend:
[1] = system: human retinal pigmented epithelial cells; experiment: α-SMA expression in retinal pigmented epithelial cells; format: cell-based; details: back to basal levels at 10 μM
From the text: (§1) In many of these disorders, circulating growth factors and chemokines promote the transformation of normal ocular cells into fibrocontractile, scar tissue-producing cells that have been termed “myofibroblasts”. Normally, myofibroblasts are responsible for tissue repair as part of the wound healing response following injury. However altered number and function of myofibroblasts are implicated in diseases characterized by pathological scar tissue formation in the liver, skin, lung, kidney, heart and eyes. In the eye, transformation of retinal pigmented epithelial (RPE) cells to a myofibroblast phenotype is linked to formation of fibro-contractile membranes which cause retinal detachment and subsequent vision impairment. In addition, myofibroblast transformation of ocular fibroblasts can result in abnormal scar tissue production after eye injury leading to subsequent vision loss. Although many of the circulating protein factors in the eye that promote myofibroblast formation have been identified, nothing is known regarding the role of lysolipids such as S1P in this process. Therefore, we examined the effects of S1P on myofibroblast transformation of several human ocular cell lines.
(§2) In these experiments, the ability of S1P to promote α-SMA expression differed in a concentration dependent manner between the retinal pigmented epithelial cells and conjunctiva fibroblasts. […]

[2] = system: human conjunctiva fibroblasts; experiment: PAI-1 expression in conjunctiva fibroblasts; format: cell-based
From the text: Collagen is one of the primary structural proteins that supports all tissues in the body and is one of the main components of scar tissue. In the non-pathological setting, total collagen content within tissue is maintained via a balance between collagen production by fibroblasts and degradation by certain enzymes. A number of disorders that involve increased levels of scar tissue result, in part, from physiological and molecular processes that inhibit degradation of collagen that is need for scar formation. It was hypothesized that the ability of S1P to promote scar tissue formation may result from its ability to inhibit collagen degradation, thereby leading to net increases in scar tissue within organs. Therefore, the effects of S1P on expression of plasminogen activator inhibitor (PAI-1) in human conjunctiva fibroblasts were examined.

[3] = system: human conjunctiva fibroblasts; experiment: α-SMA expression in conjunctiva fibroblasts; format: cell-based; details: only at this concentration
From the text: as §1, §2

[4] = system: COLO 205 tumor; experiment: SC COLO205 colorectal tumor xenograft in nude NCr mice; format: in vivo, mouse; details: LT1009 50 mg/kg ip q3d; Avastin 40 mg/kg iv q7d; Paclitaxel 15 mg/kg iv q1d×5
Method: Nude mice were implanted sc near the right flank with one fragment per mouse of COLO 205 tumor from an in vivo passage. All treatments were initiated the day when 60 mice in each experiment established tumors ranging in size from approximately 100 to 200 mm3. […] Avastin was administered iv at a dosage of 40 mg/kg/dose on a q7d schedule, injected in a volume of 0.1 mL/20 g body weight. Paclitaxel (positive control), was administered iv at a dosage of 15 mg/kg/dose on a q1d×5 schedule, injected in a volume of 0.1 mL/10 g body weight.
(§3) Animals were observed daily for mortality. Tumor dimensions and body weights were collected twice weekly starting with the first day of treatment and including the day of study termination. When the median tumor in the vehicle-treated control group in each study reached approximately 4,000 mg, the study was terminated. Tumors from each animal were harvested, wet weights were recorded, tumors were processed for determination of microvascular densities (MVD) by CD-31 staining. Tumor weights (mg) were calculated using the equation for an ellipsoid sphere (l×w^2)/2=mm^3, where l and w refer to the larger and smaller dimensions collected at each measurement and assuming unit density (1 mm^3=1 mg).

[5] = system: DU145 tumor; experiment: SC DU145 prostate tumor xenograft in nude NCr mice; format: in vivo, mouse; details: LT1009 50 mg/kg ip q2d; Avastin 20 mg/kg q4d; Paclitaxel 7.5 mg/kg q1d×5
Method: Nude mice were implanted sc near the right flank with one fragment per mouse of DU145 tumor from an in vivo passage. All treatments were initiated the day when 60 mice in each experiment established tumors ranging in size from approximately 100 to 200 mm^3. […] Paclitaxel and Avastin were administered iv and ip at a dosage of 7.5 mg/kg/dose and 20 mg/kg/dose, q1d×5 and q4d, respectively, injected in a volume of 0.1 mL/10 g body weight.
During the course of the study tumor growth was monitored by measuring the sc tumors on three axes and calculating the volume. At the end of the study final tumor weights and volumes were determined and then the mice were sacrificed, the tumors harvested. Microvascular densities (MVD) of the tumors were then determined by CD-31 staining.

[6] = system: HT29 tumor; experiment: SC HT29 colorectal tumor xenograft in nude NCr mice; format: in vivo, mouse; details: LT1009 50 mg/kg ip q2d; Avastin 20 mg/kg q4d; 5-FU 75 mg/kg q4d
Method: Nude mice were implanted sc near the right flank with one fragment per mouse of HT29 tumor from an in vivo passage. All treatments were initiated the day when 60 mice in each experiment established tumors ranging in size from approximately 100 to 200 mm^3. There were ten mice per treatment group. […] 75 mg/kg 5-FU and 20 mg/kg Avastin were administered ip and iv at a dosage of 75 mg/kg/dose and 20 mg/kg/dose, respectively, q4d, injected in a volume of 0.1 mL/10 g body weight.
as §3, with “recorded, and” for “recorded,”, “MVD” for “microvascular densities (MVD)”

Molecule | concentration at which a significant increase in α-SMA expression was observed [1] | PAI-1 expression [2] | concentration at which a significant increase in α-SMA expression was observed [3] | Final Tumor Weights [4] | Final Tumor Weights [5] | % Reduction compared to Vehicle-Treated Mice [6] | Final Tumor Weights [6]
CCCCCCCCCCCCC/C=C/[C@@H](O)[C@@H](N)COP(=O)(O)O [S1P, sphingosine-1-phosphate] | 0.001 µM | stimulates the PAI-1 expression in a dose-dependent manner | 10 µM |  |  |  | 
Avastin: anti-angiogenic drug, bevacizumab (Avastin®, Genentech) |  |  |  | 1967.90 mg | 578 mg | 30% | 1927.44 mg
